Laboratory results reported in PMC12022103 (Scientific Reports, 2025).
Non-standard residues stand in square brackets, D forms with d. Residues, ends and D or L forms follow the SMILES beside them. No end group written: not given here.

How the values were obtained:
E. coli ATCC 25922 [1] = assay: Frequency of resistance determination (p0 method); type: cell-based, Escherichia coli; details: E. coli ATCC 25922, 40 cultures, 4 × MIC, 24–48 h, colistin as reference, triplicate
Excerpt: The method was based on the Fluctuation assay (p0 method; Luria and Delbrück) for determination of mutation rate[33],[34], and optimized for selection of mutants in liquid medium. Colistin sulfate (Thermo Scientific, 15575146) served as control in experimentation. Initially, the MIC of colistin and peptides was verified through broth dilution in 96-well plates (as detailed above). In order to account for potential phenotypic heterogeneity among colonies derived from the same frozen stock, multiple colonies of E. coli ATCC 25922 were picked and inoculated in 2 mL MHII broth overnight at 37°C with continuous shaking. The following day, aliquots of colistin and peptide solutions were prepared in MHII broth at working concentrations 20 times the MIC. […] The plates were incubated at 37 °C in a humidified box, and OD was measured at 600 nm using a microplate reader (Victor Nivo, Perkin-Elmer) after 0, 24 and 48 h of incubation. […]
To calculate the viable bacterial counts, the overnight culture was serially diluted 10-fold in MHII, after which 5 µl of the 10^− 3 – 10^− 9 dilutions were spotted onto MHII agar plates and incubated overnight at 37 °C. CFUs were counted the following day to determine CFU/mL of the overnight culture. […] The mutation rate, or frequency of resistance, was calculated using the following formula: […]

E. coli ATCC 25922 [2] = assay: Minimum inhibitory concentration (MIC), broth dilution; type: cell-based, Escherichia coli; details: for MIC, E. coli: E. coli ATCC 25922, two-fold dilution in MH II broth, 5 × 10^5 CFU/mL, 18–24 h, 37 °C, OD600, triplicate, highest number reported, detection limit <0.5 and >128 µM
Description: (§1) The panel of bacterial reference strains used in this work for assessment of synthetic peptide activity originated from the American Type Culture Collection (ATCC) and was obtained from the Diagnostic section at the Department of Microbiology, Oslo University Hospital. The strains used were as follows: E. coli ATCC 25922, K. pneumoniae ATCC 13883, A. baumannii ATCC 17978, S. aureus ATCC 29213, and E. faecalis ATCC 29212.
(§2) Bacterial strains were plated on cation-adjusted Mueller-Hinton (MH II) agar plates and incubated at 37 °C overnight. The day after single colonies were picked and resuspended in sterile-filtered saline (0.9%). The OD of each bacterial suspension was adjusted to McFarland standard 0.5 using a spectrophotometer (UV-1800, Shimadzu), and the suspension further diluted 1:100 in MH II broth, corresponding to 10^6 colony forming units (CFU) per mL. The inoculum suspension was used for MIC, MBC, time-kill and protease stability assessments as described below. To ensure correct inoculum sizes, 10 µL of the bacterial suspensions were diluted 2000-fold in sterile-filtered saline (0.9%) and 100 µL plated onto MH II agar plates. After overnight incubation at 37 °C, colonies were counted. If found to be outside the acceptable number (20–80 colonies per plate corresponding to ∼10^6 CFU/mL), results from further analyses were discarded.
(§3) The peptides were serially diluted (two-fold) directly in 96-well plates (Greiner, MICROPLATE, 96 WELL, PP, U-BOTTOM, NATURAL, 650261) containing MH II broth, corresponding to concentrations in the range 256–0.5 µM. An equal volume of bacterial suspension was added to each well, resulting in a final inoculum of 5 × 10^5 CFU/mL and final peptide concentrations of 128–0.25 µM. The 96-well plates were incubated for 18–24 h at 37 °C, after which the OD of each well was measured at 600 nm in a plate reader (Victor Nivo, Perkin-Elmer). The minimum inhibitory concentration (MIC) was estimated as the lowest concentration of peptide that produced OD600 measurements similar to the control wells containing no bacteria. The experiments were performed in triplicate. Two-fold variations in MIC values were often observed between replicates.

K. pneumoniae ATCC 13883 [3] = assay: as above; type: cell-based; details: for MIC, K. pneumoniae: K. pneumoniae ATCC 13883, MH II broth, 5 × 10^5 CFU/mL, 18–24 h, 37 °C, OD600, triplicate, highest number reported, detection limit <0.5 and >128 µM
Description: as §1, §2, §3

E. faecalis ATCC 29212 [4] = assay: as above; type: cell-based; details: for MIC, E. faecalis: E. faecalis ATCC 29212, MH II broth, 5 × 10^5 CFU/mL, 18–24 h, 37 °C, OD600, triplicate, highest number reported, detection limit <0.5 and >128 µM
Description: as §1, §2, §3

S. aureus ATCC 29213 [5] = assay: as above; type: cell-based; details: for MIC, S. aureus: S. aureus ATCC 29213, MH II broth, 5 × 10^5 CFU/mL, 18–24 h, 37 °C, OD600, triplicate, highest number reported, detection limit <0.5 and >128 µM
Description: as §1, §2, §3

E. coli = assay: Cell morphology by phase contrast microscopy; type: cell-based, Escherichia coli; details: 10× MIC, 5 min exposure, preliminary
Description: To explore the potential correlation between general membrane destabilization and our FoR data, we conducted a brief preliminary examination of E. coli cell morphology following a pulsed exposure to our top four peptide candidates at 10× MIC. Cells were imaged by using phase contrast microscopy after 5 min of exposure. […] However, additional research using complementary techniques are necessary to conclusively characterize their killing mechanism.

P. aeruginosa [6] = assay: Minimum inhibitory concentration (MIC), broth dilution; type: cell-based; details: MH II broth, 5 × 10^5 CFU/mL, 18–24 h, 37 °C, OD600; triplicate, highest number reported; detection limit <0.5 and >128 µM
P. aeruginosa [7] = assay: Minimum bactericidal concentration (MBC); type: cell-based; details: 5 µL from MIC wells plated on MH II agar, 37 °C overnight, no visible colonies; triplicate, highest number reported
E. coli ATCC 25922 [8] = assay: Minimum bactericidal concentration (MBC); type: cell-based, Escherichia coli; details: 5 µL from MIC wells plated on MH II agar, 37 °C overnight, no visible colonies, triplicate, highest number reported, detection limit <0.5 and >128 µM
Description: as §1, §2
(§4) In order to assess the minimum bactericidal concentration (MBC) of peptides, 5 µL from each well of the 96-well plate used for MIC analysis was plated onto MH II agar and incubated at 37 °C overnight. […] The experiments were performed in triplicate. Two-fold variations in MIC values were often observed between replicates.

K. pneumoniae ATCC 13883 [9] = assay: Minimum bactericidal concentration (MBC); type: cell-based; details: 5 µL from MIC wells plated on MH II agar, 37 °C overnight, no visible colonies, triplicate, highest number reported
Description: as §1, §2, §4

E. faecalis ATCC 29212 [10] = assay: Minimum bactericidal concentration (MBC); type: cell-based; details: 5 µL from MIC wells plated on MH II agar, 37 °C overnight, no visible colonies, triplicate, highest number reported
Description: as §1, §2, §4

S. aureus ATCC 29213 [11] = assay: Minimum bactericidal concentration (MBC); type: cell-based; details: 5 µL from MIC wells plated on MH II agar, 37 °C overnight, no visible colonies, triplicate, highest number reported
Description: as §1, §2, §4

A. baumannii ATCC 17978 [12] = assay: Minimum bactericidal concentration (MBC); type: cell-based; details: 5 µL from MIC wells plated on MH II agar, 37 °C overnight, no visible colonies, triplicate, highest number reported
Description: as §1, §2, §4

A. baumannii ATCC 17978 [13] = assay: Minimum inhibitory concentration (MIC), broth dilution; type: cell-based; details: MH II broth, 5 × 10^5 CFU/mL, 18–24 h, 37 °C, OD600, triplicate, highest number reported, detection limit <0.5 and >128 µM
Description: as §1, §2, §3

E. coli ATCC 25922 [14] = assay: Time-kill experiments; type: cell-based, Escherichia coli; details: E. coli ATCC 25922, at the MBC; detection limit 100 CFU/mL; triplicate
Description: as §2
Four Eppendorf tubes were set up containing 0.5 mL of E. coli inoculum, prepared as described above. To the tubes were added peptides corresponding to final concentrations of ½×MIC, MIC and 2×MIC (see Fig. 3). One tube served as growth control (no added peptide). Then, 50 µL of culture were sampled from the tubes at timepoints 0, 0.25, 0.5, 2, 5 and 24 h. […] The day after, CFU/mL was calculated based on colony counts and dilution factor. […]

Solubility of peptides = type: physicochemical; details: solvent as stated in the value

Row | Compound | Frequency of resistance (FoR) (in words) (E. coli ATCC 25922 [1]) | Fold improvement (lowering) of MIC compared to parent 1a-N10, E. coli (E. coli ATCC 25922 [2]; D-form versus all-L parent) | Fold improvement (lowering) of MIC compared to parent 1a-N10, K. pneumoniae (K. pneumoniae ATCC 13883 [3]; D-form versus all-L parent) | Fold lowering of MIC compared to parent 1a-N10, E. faecalis (E. faecalis ATCC 29212 [4]; D-form versus all-L parent) | Fold lowering of MIC compared to parent 1a-N10, S. aureus (S. aureus ATCC 29213 [5]; D-form versus all-L parent) | Membrane morphology of cells (in words) (E. coli) | MIC, P. aeruginosa (P. aeruginosa [6]) | MBC, P. aeruginosa (P. aeruginosa [7]) | MBC, E. coli (E. coli ATCC 25922 [8]) | MIC, E. coli (E. coli ATCC 25922 [2]) | MBC, K. pneumoniae (K. pneumoniae ATCC 13883 [9]) | MBC, E. faecalis (E. faecalis ATCC 29212 [10]) | MBC, S. aureus (S. aureus ATCC 29213 [11]) | MBC, A. baumannii (A. baumannii ATCC 17978 [12]) | MIC, K. pneumoniae (K. pneumoniae ATCC 13883 [3]) | MIC, E. faecalis (E. faecalis ATCC 29212 [4]) | MIC, S. aureus (S. aureus ATCC 29213 [5]) | MIC, A. baumannii (A. baumannii ATCC 17978 [13]) | Time after which CFU/ml was below the detection limit (E. coli ATCC 25922 [14]) | Solubility (in words) (Solubility of peptides)
1 | CC[C@@H](C)[C@@H](NC(=O)[C@@H](CC(C)C)NC(=O)[C@@H](CCC(N)=O)NC(=O)[C@@H](CC(C)C)NC(=O)[C@H](NC(=O)[C@@H](C)NC(=O)[C@@H](CCCCN)NC(=O)[C@@H](CCCCN)NC(=O)[C@@H](CCCCN)NC(=O)[C@@H](CCCCN)NC(=O)[C@@H](CCCCN)NC(=O)[C@H](N)C(C)C)C(C)C)C(=O)N[C@H](CC(C)C)C(=O)N[C@H](CCCCN)C(=O)N[C@H](Cc1ccccc1)C(N)=O [D-1a-N10] (H-[dV][dK][dK][dK][dK][dK][dA][dV][dL][dQ][dL][dI][dL][dK][dF]-NH2; N-terminus assumed) | eliminated mutagenicity | 2 fold | 2 fold | 4 fold | 8 fold | indications of changes in membrane morphology | – | – | – | – | – | – | – | – | – | – | – | – | – | –
2 | RRRRFVLRLILRLL-NH2 [2i-N12] | – | – | – | – | – | – | 64 µM | 128 µM | 128 µM | 64 µM | 128 µM | 128 µM | 128 µM | 128 µM | 64 µM | 64 µM | 64 µM | 128 µM | – | –
3 | RRRRRRFVLRLILRLL-NH2 [2j-N12] | – | – | – | – | – | – | 64 µM | 64 µM | 128 µM | 64 µM | 64 µM | 32 µM | 64 µM | 64 µM | 64 µM | 32 µM | 64 µM | 64 µM | – | –
4 | VKKKKKAVLQLILKF-NH2 [1a-N10] | low resistance frequencies | – | – | – | – | no explicit membrane defects | – | – | – | – | – | – | – | – | – | – | – | – | 0.5 h | soluble in PBS alone
5 | VKKKKKAVLQLILKFLRRRR-NH2 [3b-N10] | – | – | – | – | – | – | 4 µM | 4 µM | 16 µM | 16 µM | 16 µM | 4 µM | 8 µM | 8 µM | 16 µM | 4 µM | 8 µM | 8 µM | – | –
6 | VRRRRRAVLQLILRFL-NH2 [3a-N10] | – | – | – | – | – | – | 64 µM | 64 µM | 32 µM | 32 µM | 32 µM | 16 µM | 32 µM | 16 µM | 32 µM | 16 µM | 32 µM | 16 µM | – | –
